Earlier results in US11938184B2, “Compositions and methods for treating Crohn's Disease and related conditions and infections” (priority 2012, dated 2024).

Test system: Crohn's disease fistulae

For infliximab, the response in fistulae (ACCENT 2 trial, after 14 weeks) is given as 60%, the fistulae maintaining closure (ACCENT 2 trial, at 1 year) is given as 36% and the “healing of perianal fistulae” value (infliximab alone) is given as 46-78%. For the same substance, the “healing of recto-vaginal fistulae” value (infliximab alone) was 14-30%, the fistulae initially healed (initial phase II and subsequent phase III trials, 296 patients) was 56-68% and the “median duration of fistula closure” value (normally requiring 3 doses of infliximab) was “approximately 3 months”.
